pIC50: −log10 of the molar value. Several values for one entry are separate records, joined by “and”; a condition that tells them apart may be missing. Identical values can stand only once.

The assay deals with 521955-158-R2-J5-PDC complex spheroids, viability. The assay is described as follows: Anticancer human tumor 521955-158-R2-J5-PDC patient-derived pancreatic carcinoma cell line growth inhibition [RAS]. The settings on record: for viability, T/C: stronger effect = lower value. The essentials:
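Multi-cell-type spheroids: tumor cells plus HUVEC endothelial cells and mesenchymal stem cells. RAS-pathway inhibitors were combined with targeted agents, each dosed in half-log steps down from clinical Cmax, or from 10 microM when Cmax was unknown.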

The mark [1] stands for this setting: curve of first compound, second compound 0.000949 µM.
The mark [2] stands for this setting: curve of first compound, second compound 0.003 µM.
Setting [3] is: curve of first compound, second compound 0.00949 µM.
Where [4] appears, read: curve of first compound, second compound 0.03 µM.
Setting [5] is: curve of first compound, second compound 0.0949 µM.
Where [6] appears, read: curve of first compound, second compound 0.3 µM.
Where [7] appears, read: second compound 0.000949 µM, first compound 0.0316 µM.
The mark [8] stands for this setting: second compound 0.000949 µM, first compound 0.1 µM.
The mark [9] stands for this setting: second compound 0.000949 µM, first compound 0.316 µM.
Setting [10] is: second compound 0.000949 µM, first compound 1 µM.
The mark [11] stands for this setting: second compound 0.003 µM, first compound 0.0316 µM.
Setting [12] is: second compound 0.003 µM, first compound 0.1 µM.
Setting [13] is: second compound 0.003 µM, first compound 0.316 µM.
The mark [14] stands for this setting: second compound 0.003 µM, first compound 1 µM.
The mark [15] stands for this setting: second compound 0.00949 µM, first compound 0.0316 µM.
Where [16] appears, read: second compound 0.00949 µM, first compound 0.1 µM.
[17] abbreviates: second compound 0.00949 µM, first compound 0.316 µM.
Setting [18] is: second compound 0.00949 µM, first compound 1 µM.
The mark [19] stands for this setting: second compound 0.03 µM, first compound 0.0316 µM.
Where [20] appears, read: second compound 0.03 µM, first compound 0.1 µM.
[21] abbreviates: second compound 0.03 µM, first compound 0.316 µM.
[22] abbreviates: second compound 0.03 µM, first compound 1 µM.
Where [23] appears, read: second compound 0.0949 µM, first compound 0.0316 µM.
The mark [24] stands for this setting: second compound 0.0949 µM, first compound 0.1 µM.
The mark [25] stands for this setting: second compound 0.0949 µM, first compound 0.316 µM.
Setting [26] is: second compound 0.0949 µM, first compound 1 µM.
Where [27] appears, read: second compound 0.3 µM, first compound 0.0316 µM.
[28] abbreviates: second compound 0.3 µM, first compound 0.1 µM.
Setting [29] is: second compound 0.3 µM, first compound 0.316 µM.
Setting [30] is: second compound 0.3 µM, first compound 1 µM.
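Note: compound exposure lasted seven days before the viability read.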
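Throughout, for viability, T/C: spheroids also contain HUVEC endothelial cells and mesenchymal stem cells as stroma.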

In the case of `CC1(O)CCCC1n1c(=O)c(C(F)F)cc2cnc(NC3CCN(S(C)(=O)=O)CC3)nc21` (configuration not stated), the viability, T/C (compound 0.0316 µM) is 92.5% [middle of 4 runs]; the viability, T/C (compound 0.1 µM) is 76.6% [middle of 4 runs]; the viability, T/C (compound 1 µM) is 75.7% [middle of 4 runs]; the viability, T/C (compound 3.16 µM) was 118% [middle of 4 runs]; the viability, T/C (compound 10 µM) is 14.9% [middle of 4 runs]. Further, the IC50 (curve of compound) is 5.85 µM [middle of 4 runs].

For `O=C(c1ccc(F)c(F)c1Nc1ccc(I)cc1F)N1CC(O)([C@@H]2CCCCN2)C1` + CCn1c(-c2cccnc2C(C)OC)c2c3cc(ccc31)N1CCOC(CC(NC(=O)C(C(C)C)N(C)C(=O)C3(F)CCN(C(=O)C#CC(C)(C)N(C)C)CC3)C(=O)N3CCCC(N3)C(=O)OCC(C)(C)C2)C1, the pIC50 under setting [1] is 7.76; the negative-log IC50 (pIC50) under setting [2] was 7.57; the pIC50 under setting [3] was 7.38; the pIC50 under setting [4] is 7.50; the pIC50 under setting [5] was 7.75; the pIC50 under setting [6] was 8.17. The viability, T/C by setting is: (second compound 0.000949 µM, first compound 0.00316 µM) 83%; (second compound 0.000949 µM, first compound 0.01 µM) 53.3%; under setting [7], 43.4%; under setting [8], 36.1%; under setting [9], 32.2%; under setting [10], 22%. Further, the viability, T/C reads like this: (second compound 0.003 µM, first compound 0.00316 µM) 77.6%; (second compound 0.003 µM, first compound 0.01 µM) 62.5%; under setting [11], 45.2%; under setting [12], 36.1%; under setting [13], 33%; under setting [14], 18.6%. The viability, T/C is 92.2% (second compound 0.00949 µM, first compound 0.00316 µM); 60.9% (second compound 0.00949 µM, first compound 0.01 µM); 58.5% under setting [15]; 42.2% under setting [16]; 28.3% under setting [17]; 24.2% under setting [18]. The viability, T/C by setting is: (second compound 0.03 µM, first compound 0.00316 µM) 80%; (second compound 0.03 µM, first compound 0.01 µM) 59.6%; under setting [19], 51.6%; under setting [20], 39.2%; under setting [21], 29%; under setting [22], 22.2%. The viability, T/C by setting is: (second compound 0.0949 µM, first compound 0.00316 µM) 64.2%; (second compound 0.0949 µM, first compound 0.01 µM) 56.8%; under setting [23], 43.2%; under setting [24], 36.4%; under setting [25], 32.4%; under setting [26], 23.9%. For the same compound, the viability, T/C (second compound 0.3 µM, first compound 0.00316 µM) was 54.2%; the viability, T/C (second compound 0.3 µM, first compound 0.01 µM) is 46.5%; the viability, T/C under setting [27] was 42.2%; the viability, T/C under setting [28] is 37%; the viability, T/C under setting [29] was 31.4%; the viability, T/C under setting [30] was 17.8%.

Turning to `CC(Nc1ccc2c(c1)OCCn1cc(N3C(=O)OCC3C(F)F)nc1-2)C(N)=O` (configuration not stated), the viability, T/C is, setting by setting: (compound 0.1 µM) 57.5% [middle of 4 runs]; (compound 0.316 µM) 41.1% [middle of 4 runs]; (compound 1 µM) 31% [middle of 4 runs]; (compound 10 µM) 23.5% [middle of 4 runs]. The IC50 (curve of compound) is 136 nM [middle of 4 runs].

Regarding `C[C@@H](NC(=O)c1ncnc(N)c1Cl)c1ncc(C(=O)Nc2cc(C(F)(F)F)c(Cl)cn2)s1` + CCn1c(-c2cc(N3CCN(C)CC3)cnc2C(C)OC)c2c3cc(ccc31)-c1csc(n1)CC(NC(=O)C1CC1C)C(=O)N1CCCC(N1)C(=O)OCC(C)(C)C2, the negative-log IC50 (pIC50) is > 7.50 under setting [1]; > 7.50 under setting [2]; > 7.50 under setting [3]; > 7.50 under setting [4]; > 7.50 under setting [5]; > 7.50 under setting [6]. Moreover, the viability, T/C reads like this: under setting [7], 49.2%; under setting [8], 50.3%; under setting [9], 50.4%; under setting [10], 48.9%; (second compound 0.000949 µM, first compound 3.16 µM) 51.3%; (second compound 0.000949 µM, first compound 10 µM) 49%. The viability, T/C was 39.9% under setting [11]; 39.5% under setting [12]; 45.2% under setting [13]; 38.9% under setting [14]; 47.9% (second compound 0.003 µM, first compound 3.16 µM); 40.7% (second compound 0.003 µM, first compound 10 µM). In addition, the viability, T/C under setting [15] is 39.9%; the viability, T/C under setting [16] is 34.2%; the viability, T/C under setting [17] was 40.8%; the viability, T/C under setting [18] is 37%; the viability, T/C (second compound 0.00949 µM, first compound 3.16 µM) was 36.4%; the viability, T/C (second compound 0.00949 µM, first compound 10 µM) was 38.7%. Moreover, the viability, T/C is, setting by setting: under setting [19], 26.9%; under setting [20], 29.7%; under setting [21], 31%; under setting [22], 22.4%; (second compound 0.03 µM, first compound 3.16 µM) 29.2%; (second compound 0.03 µM, first compound 10 µM) 21.6%. Besides, the viability, T/C by setting is: under setting [23], 11.8%; under setting [24], 12.6%; under setting [25], 18.7%; under setting [26], 16.8%; (second compound 0.0949 µM, first compound 3.16 µM) 17.8%; (second compound 0.0949 µM, first compound 10 µM) 17.8%. Also, the viability, T/C was 11.7% under setting [27]; 13.2% under setting [28]; 13.5% under setting [29]; 12.4% under setting [30]; 15.2% (second compound 0.3 µM, first compound 3.16 µM); 12.3% (second compound 0.3 µM, first compound 10 µM).

As to `Cc1nc(N2CCC3(CC2)COC(C)C3N)c(CO)nc1Sc1ccnc(N)c1Cl` (configuration not stated), the viability, T/C by setting is: (compound 0.0316 µM) 85.6% [middle of 4 runs]; (compound 0.1 µM) 71.7% [middle of 4 runs]; (compound 0.316 µM) 69.2% [middle of 4 runs]; (compound 1 µM) 67.1% [middle of 4 runs]; (compound 3.16 µM) 67% [middle of 4 runs]; (compound 10 µM) 57% and 57.9% (2×) and 51.2%. Further, the pIC50 (curve of compound) was < 5.00.

For orientation: viability, T/C means the ratio of treated to control. By IC50 is commonly meant the concentration that inhibits the measured activity by half. The term pIC50 denotes the negative decadic logarithm of the IC50, by convention in mol/L.

The record behind these values is PubChem BioAssay AID2060900 (Molecular Pharmacology Branch, DTP, NCI, 2025).
